From ChEMBL document CHEMBL1139269, “Stereoselective inhibition of serotonin re-uptake and phosphodiesterase by dual inhibitors as potential agents for depression” (Bioorg Med Chem, 2009)
pIC50, pKi: −log10 of the molar value. Active and inactive are the calls of the source. The calls are words filed in the database; no cut-off is given here.

How the values were obtained:
[1] = target: T1, Sodium-dependent dopamine transporter (Homo sapiens, UniProt Q01959); experiment: Inhibition of [3H]DA from human recombinant DAT expressed in HEK293 cells; type: cell-based
T1 sequence (Q01959 whole entry): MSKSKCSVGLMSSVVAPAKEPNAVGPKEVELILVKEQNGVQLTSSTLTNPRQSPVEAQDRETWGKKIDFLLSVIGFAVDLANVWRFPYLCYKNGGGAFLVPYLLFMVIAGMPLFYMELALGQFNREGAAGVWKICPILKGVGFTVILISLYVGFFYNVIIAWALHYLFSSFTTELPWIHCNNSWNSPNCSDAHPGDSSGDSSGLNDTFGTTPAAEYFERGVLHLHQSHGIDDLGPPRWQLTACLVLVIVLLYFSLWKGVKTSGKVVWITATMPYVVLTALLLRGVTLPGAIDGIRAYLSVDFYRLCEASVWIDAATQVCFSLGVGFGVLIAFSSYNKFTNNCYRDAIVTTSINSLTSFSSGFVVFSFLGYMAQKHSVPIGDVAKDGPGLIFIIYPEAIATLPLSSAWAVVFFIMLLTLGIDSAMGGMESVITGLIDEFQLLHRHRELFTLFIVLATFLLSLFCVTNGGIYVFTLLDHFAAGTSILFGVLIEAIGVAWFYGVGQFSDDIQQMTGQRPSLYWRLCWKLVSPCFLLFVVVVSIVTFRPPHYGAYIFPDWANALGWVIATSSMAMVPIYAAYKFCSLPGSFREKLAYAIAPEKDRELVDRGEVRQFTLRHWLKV

[2] = target: T2, Sodium-dependent serotonin transporter (Homo sapiens, UniProt P31645); experiment: Inhibition of [3H]5HT from human recombinant SERT expressed in HEK293 cells; type: cell-based
T2 sequence (P31645 whole entry): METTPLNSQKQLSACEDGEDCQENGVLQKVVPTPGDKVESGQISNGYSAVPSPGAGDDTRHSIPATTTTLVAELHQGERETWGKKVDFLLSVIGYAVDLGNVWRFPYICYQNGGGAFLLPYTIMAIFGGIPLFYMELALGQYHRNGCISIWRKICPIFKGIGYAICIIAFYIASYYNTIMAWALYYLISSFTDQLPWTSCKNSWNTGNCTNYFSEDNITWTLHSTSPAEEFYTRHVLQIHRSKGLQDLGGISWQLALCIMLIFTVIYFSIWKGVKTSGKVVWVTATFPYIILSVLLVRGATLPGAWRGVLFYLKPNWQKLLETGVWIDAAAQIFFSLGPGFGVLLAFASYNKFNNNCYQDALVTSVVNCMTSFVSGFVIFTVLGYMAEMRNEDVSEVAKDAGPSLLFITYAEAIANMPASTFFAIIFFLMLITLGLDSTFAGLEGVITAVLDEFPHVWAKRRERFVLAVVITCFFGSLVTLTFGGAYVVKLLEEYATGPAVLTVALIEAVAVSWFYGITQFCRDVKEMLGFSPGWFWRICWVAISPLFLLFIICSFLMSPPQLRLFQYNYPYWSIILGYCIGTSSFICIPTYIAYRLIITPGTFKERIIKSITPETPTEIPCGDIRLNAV

[3] = target: T1, Sodium-dependent dopamine transporter; experiment: Displacement of [125I]RTI55 from human recombinant DAT expressed in HEK293 cells; type: cell-based
[4] = target: T2, Sodium-dependent serotonin transporter; experiment: biochemical; type: cell-based, HEK293
[5] = target: T3, Sodium-dependent noradrenaline transporter (Homo sapiens, UniProt P23975); experiment: Inhibition of [3H]NE from human recombinant NET expressed in HEK293 cells; type: cell-based
T3 sequence (P23975 whole entry): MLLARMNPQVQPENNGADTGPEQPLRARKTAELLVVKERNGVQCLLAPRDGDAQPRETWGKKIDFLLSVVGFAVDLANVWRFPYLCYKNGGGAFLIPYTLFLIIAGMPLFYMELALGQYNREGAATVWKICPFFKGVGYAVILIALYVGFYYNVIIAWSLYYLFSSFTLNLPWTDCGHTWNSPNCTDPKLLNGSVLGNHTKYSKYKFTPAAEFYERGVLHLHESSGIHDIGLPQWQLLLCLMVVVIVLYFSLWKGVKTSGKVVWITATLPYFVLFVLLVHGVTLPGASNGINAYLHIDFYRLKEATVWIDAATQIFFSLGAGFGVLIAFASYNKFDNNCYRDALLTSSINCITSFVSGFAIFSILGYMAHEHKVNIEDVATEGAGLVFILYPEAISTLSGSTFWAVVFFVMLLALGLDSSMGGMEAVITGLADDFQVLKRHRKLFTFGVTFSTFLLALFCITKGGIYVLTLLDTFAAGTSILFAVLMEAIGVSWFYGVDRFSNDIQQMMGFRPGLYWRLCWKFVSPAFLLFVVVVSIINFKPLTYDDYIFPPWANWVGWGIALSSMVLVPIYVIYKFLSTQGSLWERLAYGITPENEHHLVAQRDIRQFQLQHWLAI

[6] = target: T4, 3',5'-cyclic-AMP phosphodiesterase 4D (Homo sapiens, UniProt Q08499); experiment: Inhibition of PDE4D2 by rapid fluorescence based assay
T4 sequence (Q08499 whole entry): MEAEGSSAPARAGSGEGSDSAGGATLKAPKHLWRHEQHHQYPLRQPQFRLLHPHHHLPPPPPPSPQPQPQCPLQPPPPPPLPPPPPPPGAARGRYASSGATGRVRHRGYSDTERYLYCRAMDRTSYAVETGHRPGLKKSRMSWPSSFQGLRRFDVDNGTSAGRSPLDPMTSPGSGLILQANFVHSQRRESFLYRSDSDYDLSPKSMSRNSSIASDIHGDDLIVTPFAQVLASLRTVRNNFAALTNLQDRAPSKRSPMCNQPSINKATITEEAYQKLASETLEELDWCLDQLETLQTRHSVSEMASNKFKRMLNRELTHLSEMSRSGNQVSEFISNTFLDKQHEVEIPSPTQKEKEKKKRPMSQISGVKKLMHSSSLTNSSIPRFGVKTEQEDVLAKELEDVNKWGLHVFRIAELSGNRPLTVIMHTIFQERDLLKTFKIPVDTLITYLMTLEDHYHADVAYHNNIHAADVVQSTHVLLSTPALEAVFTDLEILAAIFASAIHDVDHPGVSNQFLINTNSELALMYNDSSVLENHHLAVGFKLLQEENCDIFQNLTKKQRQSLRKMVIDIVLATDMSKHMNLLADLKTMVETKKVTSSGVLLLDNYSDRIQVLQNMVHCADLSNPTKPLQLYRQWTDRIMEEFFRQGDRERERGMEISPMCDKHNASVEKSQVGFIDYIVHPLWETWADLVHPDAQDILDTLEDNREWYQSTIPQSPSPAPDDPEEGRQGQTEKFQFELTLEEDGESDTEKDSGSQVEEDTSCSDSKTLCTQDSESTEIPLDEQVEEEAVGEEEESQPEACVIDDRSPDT

[7] = target: T3, Sodium-dependent noradrenaline transporter; experiment: Displacement of [125I]RTI55 from human recombinant NET expressed in HEK293 cells; type: cell-based
[8] = target: T4, 3',5'-cyclic-AMP phosphodiesterase 4D; experiment: Inhibition of PDE4D2 at 100 uM by rapid fluorescence based assay

SMILES | pIC50 [1] | pIC50 [2] | pKi [3] | pKi [4] | pIC50 [5] | pIC50 [6] | pKi [7] | Activity [8]
COc1ccc(C2=NN(CCCCCBr)C(=O)C3CC=CCC23)cc1OC (stereo not given) | < 4.00 | < 4.00 | < 4.00 | < 4.00 | – | – | – | –
COc1ccc(C2=NN(CCCCCNCC[C@@H](Oc3ccc(C(F)(F)F)cc3)c3ccccc3)C(=O)C3CC=CCC23)cc1OC (stereo not given in full) | < 5.15 | 6.76 | 5.35 | 7.19 | 5.17 | 6.97 | 5.18 | –
NCC[C@@H](Oc1ccc(C(F)(F)F)cc1)c1ccccc1 | 5.15 | – | 5.44 | – | 5.70 | – | 5.13 | inactive
COc1ccc(C2=NNC(=O)C3CC=CCC23)cc1OC (stereo not given) | < 4.00 | < 4.00 | < 4.00 | < 4.00 | < 4.00 | 6.67 | < 4.00 | –

Now those with a higher pIC50 [1], led by results:

pIC50 [1] | pIC50 [2] | pKi [3] | pKi [4] | pIC50 [5] | pIC50 [6] | pKi [7] | Activity [8] | SMILES
5.19 | – | 5.34 | – | 5.55 | ≤ 4.00 | 5.21 | – | NCC[C@H](Oc1ccc(C(F)(F)F)cc1)c1ccccc1 [SEPROXETINE]
5.22 | 7.38 | 5.57 | 6.52 | 5.18 | 6.60 | 5.34 | – | COc1ccc(C2=NN(CCCCCNCC[C@H](Oc3ccc(C(F)(F)F)cc3)c3ccccc3)C(=O)C3CC=CCC23)cc1OC (stereo not given in full)
